Results: patent US5721265A, “Fluorinated 2-nitroimidazole analogs for detecting hypoxic tumor cells” (priority 1995, dated 1998)
≈ marks a conversion by molar mass, not a printed value. Where “and” joins values, the source holds several entries; their conditions need not be identical. Identical values can stand only once. Entries after “also recorded” stand apart in the source; their conditions may differ. Like-named read-outs stand apart in the source and are kept apart here.

Experiments:
log P (lipophilicity) = format: physicochemical
[1] = reductive metabolism of SR 4554 by mouse liver microsomes under hypoxia (HPLC); format: in vitro ADME
Method: (§1) The chromatographic system consisted of a WISP Model 712 autosampler (Waters Chromatography Ltd.), Model 660 gradient controller with a quaternary HPLC pump, a Model 991 photodiode array detector and a NEC Powermate SX/16 personal computer running Waters 991 photodiode array software. A reversed phase chromatographic separation was performed on a 10 μm μ Bondapak C18 (3.9×300 mm) analytical column (Millipore) at ambient temperature. Pellicular ODS (Whatman) packed in a 2×6.5 mm stainless steel column (Upchurch Scientific, Inc.) was used as a pre-column. The mobile phase was methanol/H2 O) (15:85). All solvents were filtered through a 0.45 μm Teflon PTFE/polypropylene filter membrane, de-gassed with helium and delivered isocratically at a flow rate of 2 ml/min. The column effluent was monitored by UV-photodiode array detection at 324 nm (UV range=200 to 500 nm). The peak area ratio of analyte to internal standard was used for conversion of the detector response to concentration estimates via the construction of a calibration curve.
(§2) SR 4554 was reduced by mouse liver microsomes as well as purified rat and human cytochrome P450 reductase under hypoxia (100% nitrogen).
The characteristics of reductive metabolism of SR 4554 by mouse liver microsomes (0.5 mg/ml protein) are depicted in FIG. 1. Samples were removed at various time points, extracted with silver nitrate and analyzed by high performance liquid chromatography (HPLC) as described above. […] The cytochrome P450 inhibitor--carbonmonoxide--inhibited the hypoxic metabolism of SR 4554 by 15%.

[2] = system: cytochrome P450 reductase; assay: reduction by purified rat cytochrome P450 reductase under hypoxia; format: in vitro ADME; conditions: 100% nitrogen
From the text: as §2

[3] = system: cytochrome P450 reductase; assay: reduction by purified human cytochrome P450 reductase under hypoxia; format: in vitro ADME; conditions: 100% nitrogen
From the text: as §2

[4] = pharmacokinetics of SR 4554 in EMT-6 tumor-bearing mice (HPLC); format: in vivo, mouse
Method: Silver nitrate solution (25 μl; 30% w/v) was added to 250 μl of tissue samples and standards and to 20 μl of internal standard solution (12.5 μg/ml in 0.1M Tris buffer, pH 7.4). Samples were then vortexed and centrifuged (2000×g) for 5 min. The extracted samples 50 μl) were then injected into the HPLC.
as §1
EMT-6 tumor-bearing mice were used in this study. Mice were given a single intraperitoneal or intravenous injection (180 mg/kg body weight) or a single oral dose (p.o. 90 mg/kg) by lavage of SR 4554. Three mice were sacrificed per time point and blood obtained by cardiac puncture. The blood obtained was centrifuged to give plasma. Tumors, livers and brain were also obtained at various time points. Samples were extracted with silver nitrate and analyzed by high performance liquid chromatography (HPLC) using the procedures described in Example 4.

[5] = urinary excretion of SR 4554 in non-tumor-bearing female Balb/c mice; format: in vivo, mouse; conditions: urine
[6] = toxicity of SR 4554 in female Balb/c mice; format: in vivo, mouse
Method: Toxicity studies of SR 4554 were done in female Balb/c mice. Mice were injected with SR 4554 i.v with 191 mg/kg ([…]) body weight or i.p. with 383 mg/kg ([…]) body weight. Control mice were injected with an equivalent volume of solvent (saline).

RIF-1 tumors = assay: retention in RIF-1 tumor-bearing C3H/He mice by 19F magnetic resonance spectroscopy (and HPLC); format: in vivo, mouse
Method: (§3) SR 4554 was administered as a single intraperitoneal injection of 180 mg/kg to RIF-1 tumor-bearing female C3 H/He mice and EMT-6 tumor-bearing female Balb/c mice. In some experiments, hydralazine ([…] i.v.) was administered 1 h prior to the administration of SR 4554. Magnetic resonance spectroscopy (MRS) was conducted on a 4.7 Tesla (SISCO) nuclear magnetic resonance (NMR) spectrometer using a double-tuned (^19 F/^2 H) circuit at 45 min and 6 hr post injection of SR 4554. Drug concentrations were obtained using a modification of the method of Thulborn et al. (1983) J. Magn. Reson. 55:357-371. Specifically, the ^19 F signal intensity was related to the natural abundance ^2 H signal from tissue water. Calibrations involved the use of a reference bulb containing 5-fluorotryptophan (5-FTP) and acetic acid-d (AcOH-d). Tumors were excised immediately after MRS examination and original drug levels determined by high performance liquid chromatography (HPLC), as described in Example 6.
It is assumed that the retention of high concentrations of ^19 F at 6 hr, despite the much lower (20 fold) concentration of original drug detected by HPLC at […], represent one or more nitro-reduced metabolites.
The retention of drug signal in RIF-1 tumors is plotted as a function of tumor weight in FIG. 7. Tumor ^19 F signal levels at 6 hrs and 45 min were calculated in μmol/g tumor. The retention of ^19 F at 6 hrs relative to 45 min in the same tumors was compared to corresponding tumor weights in grams. In this tumor model (a low hypoxic fraction tumor) the relative retention (6 hrs/45 min) correlated with tumor weight (corr. coeff.=0.83).

EMT-6 tumors = assay: retention in EMT-6 tumor-bearing Balb/c mice by 19F magnetic resonance spectroscopy; format: in vivo, mouse
Method: as §3
RIF-1 and EMT-6 tumors have a low and a high radiobiological hypoxic fraction, respectively. Moulder et al. (1984), supra.

[7] = system: murine and human tumor xenografts; assay: retention of 19F signal in murine and human tumor xenografts by MRS; format: in vivo, mouse; human
Method: In addition to the above experiment, more extensive in vivo experiments have been performed. In order to assess the oxygenation status of various murine and human tumor xenografts, the retention of ^19 F signal as measured by MRS was evaluated following SR 4554 administration. The data shown in FIG. 8 represent the mean ±SD of the ratios of ^19 F retention (μmol/g) at 6 hrs relative to 45 mins. RIF1 (fibrosarcoma), EMT6 ([…]) and KHT (adenocarcinoma) are murine tumors whereas HT29 (colon carcinoma), BB (colon carcinoma), WIL (non-small cell lung carcinoma) and HN5 (squamous cell carcinoma of the head and neck) are human tumor xenografts. Importantly, the data illustrates the varying degree of retention of SR 4554 by the different tumors.

C3H mouse mammary tumor = assay: influence of carbogen breathing on SR 4554 retention within the C3H mouse mammary tumor; format: in vivo
From the text: Table 4 presents the influence of high levels of oxygen (carbogen breathing) on SR 4554 retention within the C3H mouse mammary tumor.

C3H-mammary tumor = assay: SR 4554 retention and oxygen electrode measurement in C3H-mammary tumor; format: in vivo, mouse
Method: (§4) Tumor oxygenation measurements were performed 3 hours after SR 4554 administration using a polarographic needle oxygen electrode.

SCCVII tumor = assay: SR 4554 retention and oxygen electrode measurement in SCCVII tumor; format: in vivo
Method: as §4

[8] = solubility in 0.9% saline solution
[9] = system: mouse tumors (EMT-6, KHT, RIF-1); conditions: cited from earlier work; for 19F signal intensity by tumor type: EMT-6, KHT vs RIF-1; for retention in mouse tumors (19F MRS): in vivo
tumors = conditions: cited from earlier work
[10] = cited from earlier work
[11] = in vivo; cited from earlier work
[12] = literature compounds; cited from earlier work
[13] = per amount injected 3.34-3.55 mg

In the case of `O=C(Cn1ccnc1[N+](=O)[O-])NCC(O)C(F)(F)F` (racemic) [SR 4554], the logP (log P (lipophilicity)) is reported as -0.2, the “inhibition of reduction by cytochrome P450 reductase inhibitor” value ([1]; TlCl3.4H2O, 0.2 mg/ml) is reported as “completely inhibited” and the “inhibition of reduction by air” value ([1]; in air) is reported as “completely inhibited”. For the same compound, the “Vmax of microsomal metabolism” value ([1]; mouse liver microsomes) was 16.84 nmol/min/mg, the “other nitro-containing species upon metabolism” value ([1]; mouse liver microsomes 0.5 mg/ml protein) was “No other nitro-containing species were observed” and the reduced under hypoxia ([1]; mouse liver microsomes, 100% nitrogen) was “reduced; also recorded: metabolized under hypoxic conditions”. The Km ([1]; mouse liver microsomes, read-out: Km of microsomal metabolism) was 0.65 mM, the “inhibition of reduction in the absence of cofactor (NADPH)” value ([1]; without NADPH) was “completely inhibited” and the reduced under hypoxia [2] was “reduced”. The reduced under hypoxia [3] was “reduced”, the “brain/plasma ratio over time” value ([4]; i.p.) was “generally remained low throughout the observation period” and the “liver/plasma ratio over time” value ([4]; i.p.) was “decreased very rapidly”. For the same compound, the “time of peak tumor/plasma ratio” value ([4]; i.p.) was “about 90 min”, the “liver/plasma and brain/plasma ratios at 240 min” value ([4]; i.p., 240 min) was “about the same” and the “bioavailability ratio relative to i.v., i.v.” value ([4]; i.v. 180 mg/kg) was 100%. For the same compound, the “detectable in plasma until” value ([4]; limit of detection=25 ng/ml, postinjection) was no less than 6 h, the “brain levels and brain/plasma ratio” value ([4]; mice) was “generally low” and the “accumulation in the brain” value ([4]; mouse, in vivo) was “does not accumulate to any appreciable degree in the brain”. The bioavailability ([4]; mouse, in vivo, ip, i.p. 180 mg/kg, read-out: bioavailability ratio relative to i.v., i.p.) was 100%, the bioavailability ([4]; mouse, in vivo, po, p.o. 90 mg/kg, read-out: bioavailability ratio relative to i.v., p.o.) was 95.5% and the Cmax ([4]; mouse, plasma, read-out: Cmax, plasma) was 145 µg/mL. For the same compound, the half-life ([4]; mouse, plasma, read-out: half life, t1/2, plasma) was 50.8 ± 1.6 min, the Tmax ([4]; mouse, plasma, read-out: tmax, plasma (converted)) was 30 min and the concentration at 6 h ([4]; mouse, tissue, limit of detection, 6 hours, read-out: tissue levels of drug at 6 hours) was less than 100 ng/g. It also gave a Cmax ([4]; mouse, tumor, read-out: Cmax, tumor) of 52000 ng/g, a half-life ([4]; mouse, tumor, read-out: half life, t1/2, tumor) of 51.5 ± 4.4 min and a Tmax ([4]; mouse, tumor, read-out: tmax, tumor (converted)) of 45 min. The dose excreted ([5]; mouse, read-out: detected as unchanged parent compound in urine) was no more than 66%, the “Amount of Drug Excreted” value [5, 13] was 2.62 mg and 2.39 mg and 1.83 mg and the “Fraction of Dose Excreted” value [5, 13] was 73.80% and 71.56% and 52.59%. For the same compound, the “behavioral changes or deaths” value ([6]; i.v. 191 mg/kg or i.p. 383 mg/kg) was “no behavioral changes or deaths were observed”, the “bodyweight changes between treated and control mice” value ([6]; mouse, in vivo) was “No differences were observed” and the “Retention (mean ± S.D.), + hydralazine” value (RIF-1 tumors; RIF-1 + hydralazine 1 h prior, n = 6) was 1.27 ± 0.50. For the same compound, the “Retention (mean ± S.D.)” value (RIF-1 tumors; RIF-1, 180 mg/kg i.p., n = 13, tumor weight 0.5 to 2.7 g) was 0.53 ± 0.27, the “clearance from the brain and retention in tumors” value (RIF-1 tumors; RIF-1 mice) was “rapidly cleared from the brain but selectively retained in tumors” and the “tumor drug level, 7 hrs (HPLC)” value (RIF-1 tumors; RIF-1 tumor, original drug, 7 hrs, HPLC) was 0.009 μmol/g tissue and 0.008 μmol/g tissue and 0.007 μmol/g tissue. The “concentration of original drug (HPLC, 7 hrs) lower than 19F (MRS, 6 hr)” value (RIF-1 tumors; RIF-1 tumors) was 20 fold, the “increase in retention on hydralazine pre-treatment” value (RIF-1 tumors; hydralazine 1 h prior) was “two-fold increase” and the “Retention (mean ± S.D.)” value (EMT-6 tumors; EMT-6, 180 mg/kg i.p., n = 12) was 1.04 ± 0.66. The “retention in EMT-6 compared with RIF-1 tumors” value (EMT-6 tumors; MRS) was “greater in EMT-6 tumors than in RIF-1 tumors”, the “retention in human tumor xenografts vs murine tumors (6 hrs relative to 45 mins)” value ([7]; HT29, BB, WIL, HN5 vs RIF1, EMT6, KHT) was “Apart from the WIL tumor, the retention of the drug in human tumor xenografts were lower than for the murine tumors” and the “trend of retention with hypoxic fraction” value ([7]; murine and human tumors) was “tumors which are known to have a greater hypoxic fraction retained more SR 4554”. For the same compound, the “Retention, air breathing” value (C3H mouse mammary tumor; Air (20% O2)) was 0.62 +/- 0.17, the “Retention, carbogen breathing” value (C3H mouse mammary tumor; Carbogen (95% O2)) was 0.11 +/- 0.05 and the “reduction in retention, carbogen vs air” value (C3H mouse mammary tumor; carbogen vs air) was “significant (P<0.01) reduction”. For the same compound, the “SR 4554 Retention (mean ± SD)” value (C3H-mammary tumor) was 0.79 +/- 0.36, the “SR 4554 Retention (mean ± SD)” value (SCCVII tumor) was 0.57 +/- 0.14 and the solubility [8] was 23 mM (≈ 6.49 mg/mL).

In the case of `O=[N+]([O-])c1nccn1CC(O)COC(C(F)(F)F)C(F)(F)F` (stereo not shown) [CCI-103F, hexafluoromisonidazole], the “19F signal intensity by tumor type” value [9] is listed as “higher in EMT-6 and KHT than RIF-1 tumors”, the “retention in mouse tumors (19F MRS)” value [9] is listed as “selectively retained in mouse tumors” and the “staining for bound drug in tumors” value (tumors; immunohistochemistry) is listed as “some staining for bound drug at the periphery of necrotic zones”. The “19F tumor signal detectable after twenty-four hours” value (tumors; intraperitoneal, 24 hours) was 4 of 10, the octanol/water partition coefficient [10] was 20 and the neurotoxic side effects [11] was “neurotoxic side effects”.

For `O=C(Cn1ccnc1[N+](=O)[O-])NCCO` [Etanidazole], the “log P” value [12] is given as -1.28, the “neurotoxicity relative to Misonidazole” value [11] is given as “less neurotoxic than Misonidazole” and the solubility [8] is given as 551 mM (≈ 118 mg/mL).

In the case of `COCC(O)Cn1ccnc1[N+](=O)[O-]` (stereo not shown) [Misonidazole], the “log P” value [12] is given as -0.32.

For `O=[N+]([O-])c1nccn1CC(O)CF` (stereo not shown) [Ro 07-0741], the “19F signal intensity by tumor type” value [9] is listed as “higher in EMT-6 and KHT than RIF-1 tumors”, the “retention in mouse tumors (19F MRS)” value [9] is listed as “selectively retained in mouse tumors” and the octanol/water partition coefficient [10] is listed as 0.41. For the same compound, the neurotoxic side effects [11] was “neurotoxic side effects”.

Compound `O=C(Cn1ccnc1[N+](=O)[O-])N(CCO)CC(O)C(F)(F)F` (stereo not shown) [SR 4557, N-(2-hydroxyethyl)-N-(2-hydroxy-3,3,3-trifluoropropyl)-2-(2-nitro 1H-imidazol-1-yl)acetamide] has a logP (log P (lipophilicity)) of -0.36 and a solubility [8] of 628 mM (≈ 205 mg/mL).
